Test results taken from patent US8604046B2, “Substituted piperidine spiro pyrrolidinone and piperidinone, preparation and therapeutic use thereof” (Sanofi, priority 2008, dated 2013).
Values belong to the compound of their own block, whether it stands above or below them.

Legend:
[1] = molecular target: T1, rhesus H3 receptor (Macaca mulatta, UniProt Q865E1); assay: Rhesus H3 [3H]-methylhistamine radioligand binding assay; design: species or system rhesus monkey (Macacca Mulatta); details: [3H]-Methylhistamine 2 nM, rhesus H3 membranes, WGA SPA beads, Cheng-Prusoff
Protocol: (§1) Rhesus H3 membranes were prepared from the Flp-In T-REx 293 Cell Line (Invitrogen) stably transfected with pcDNA5/FRT/TO (Invitrogen) containing the rhesus monkey (Macacca Mulatta) 445 amino acid H3 receptor. (Genbank #AY231164). Stably transfected cultures were amplified in tissue culture flasks by standard tissue culture methods and induced to express rhesus H3 by exposure to 500 ng/ml tetracycline (Cellgro) for 24 hours. After induction, cells were dissociated from flasks utilizing Cell Stripper (Cellgro). Cells were centrifuged (1K×g, 5 min) and pellet frozen in an ethanol-dry ice bath to disrupt cell membranes. Frozen cell pellet was re-suspended in 5 mM HEPES (pH 7.4, Invitrogen) at 10 ml/1000 cm2 of harvested cells. The cell suspension was drawn through an 18 gauge needle (2-3×) followed by a 23 gauge needle (2-3×) to further disrupt cell membranes. The cell suspension was centrifuged (40K×g, 30 min). Cell membrane pellet was re-suspended in 5 mM HEPES (pH 7.4, Invitrogen) at a final protein concentration of 10 mg/ml. Rhesus H3 membranes were stored under liquid nitrogen prior to use in [3H]-Methylhistamine and GTP S radioligand binding assays.
Rhesus H3 radioligand binding assay was performed using rhesus H3 receptor membranes (prepared as described above), [3H]-Methylhistamine (Perkin Elmer) and WGA SPA beads (wheat germ agglutinin scintillation proximity assay) beads (Amersham). The assay was performed in 96-well Opti-Plates (Packard). Each reaction contained 50 μl rhesus H3 membranes (20-30 μg total protein), 50 μl WGA SPA beads (0.1 μg) and 50 μl of 83 Ci/mmol [^3H]-Methylhistamine (final concentration 2 nM) and 50 μl of tested compound. The compounds of this invention and/or vehicle were diluted with binding buffer from 10 mM DMSO stocks. Assay plates were sealed with TopSeal (Perkin Elmer) and mixed on shaker (25° C., 1 hour). Assay plates were read on TopCount scintillation counter (Packard). Results were analyzed by Hill transformation and Ki values were determined by Cheng-Prusoff equation.

[2] = molecular target: T1, rhesus H3 receptor; assay: GTPγS radioligand binding assay, inhibition of rhesus H3 constitutive functional activity (inverse agonism); format: biochemical, rhesus monkey (Macacca Mulatta); design: concentration or dose not given beside the values; details: rhesus H3 cell membranes, relative to basal levels
Protocol: as §1

T1 sequence (Q865E1 1-445): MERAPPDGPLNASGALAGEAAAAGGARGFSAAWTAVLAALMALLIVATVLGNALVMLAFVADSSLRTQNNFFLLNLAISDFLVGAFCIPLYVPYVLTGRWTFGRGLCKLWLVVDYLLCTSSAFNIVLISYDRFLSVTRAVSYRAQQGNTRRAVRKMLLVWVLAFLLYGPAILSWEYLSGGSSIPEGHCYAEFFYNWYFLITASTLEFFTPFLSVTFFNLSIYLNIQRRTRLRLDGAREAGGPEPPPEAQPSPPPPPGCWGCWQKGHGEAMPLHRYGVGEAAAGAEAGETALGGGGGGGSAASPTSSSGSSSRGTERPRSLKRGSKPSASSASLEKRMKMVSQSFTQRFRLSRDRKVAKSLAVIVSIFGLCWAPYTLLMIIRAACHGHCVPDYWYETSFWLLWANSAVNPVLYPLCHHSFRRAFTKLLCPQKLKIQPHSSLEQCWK

Structure (SMILES): Cc1cc(N2CC[C@H](N3CCC[C@H]3C)C2)ccc1N1CCC2(CCN(C(=O)OC(C)(C)C)CC2)C1=O [Example 1, 2-[2-Methyl-4-((2R,3′S)-2-methyl-[1,3′]bipyrrolidinyl-1′-yl)-phenyl]-1-oxo-2,8-diaza-spiro[4.5]decane-8-carboxylic acid tert-butyl ester]
- Ki [1]: 132 nM
- Inverse Agonism: % inhibition of Basal GTPγS binding in Rhesus H3 [2]: −24%

Structure (SMILES): Cc1cc(N2CC[C@@H](N3CCC[C@H]3C)C2)ccc1N1CCC2(CCN(C(=O)OC(C)(C)C)CC2)C1=O [Example 2, 2-[2-Methyl-4-((2R,3′R)-2-methyl-[1,3′]bipyrrolidinyl-1′-yl)-phenyl]-1-oxo-2,8-diaza-spiro[4.5]decane-8-carboxylic acid tert-butyl ester]
- Ki [1]: 248 nM
- Inverse Agonism: % inhibition of Basal GTPγS binding in Rhesus H3 [2]: −30%

Structure (SMILES): Cc1cc(N2CC[C@@H](N3CCC[C@@H]3C)C2)ccc1N1CCC2(CCN(C(=O)OC(C)(C)C)CC2)C1=O [Example 3, 2-[2-Methyl-4-((2S,3′R)-2-methyl-[1,3′]bipyrrolidinyl-1′-yl)-phenyl]-1-oxo-2,8-diaza-spiro[4.5]decane-8-carboxylic acid tert-butyl ester]
- Ki [1]: 7 nM
- Inverse Agonism: % inhibition of Basal GTPγS binding in Rhesus H3 [2]: −23%

Structure (SMILES): Cc1cc(N2CC[C@H](N3CCC[C@@H]3C)C2)ccc1N1CCC2(CCN(C(=O)OC(C)(C)C)CC2)C1=O [Example 4, 2-[2-Methyl-4-((2S,3′S)-2-methyl-[1,3′]bipyrrolidinyl-1′-yl)-phenyl]-1-oxo-2,8-diaza-spiro[4.5]decane-8-carboxylic acid tert-butyl ester]
- Ki [1]: 43 nM
- Inverse Agonism: % inhibition of Basal GTPγS binding in Rhesus H3 [2]: −31%

Structure (SMILES): Cc1cc(N2CCC(N3CCCC3C)C2)ccc1N1CCC2(CCN(C(=O)OC(C)(C)C)CC2)C1=O (stereo not shown) [Example 5, 2-[2-Methyl-4-(2-methyl-[1,3′]bipyrrolidinyl-1′-yl)-phenyl]-1-oxo-2,8-diaza-spiro[4.5]decane-8-carboxylic acid tert-butyl ester]
- Ki [1]: 18 nM
- Inverse Agonism: % inhibition of Basal GTPγS binding in Rhesus H3 [2]: −13%

Structure (SMILES): Cc1cc(N2CC[C@H](N3CCC[C@@H]3C)C2)ccc1N1CCC2(CCNCC2)C1=O [Example 6, 2-[2-Methyl-4-((2S,3′S)-2-methyl-[1,3′]bipyrrolidinyl-1′-yl)-phenyl]-2,8-diaza-spiro[4.5]decan-1-one]
- Ki [1]: 11 nM
- Inverse Agonism: % inhibition of Basal GTPγS binding in Rhesus H3 [2]: −22%

Structure (SMILES): Cc1cc(N2CC[C@@H](N3CCC[C@H]3C)C2)ccc1N1CCC2(CCNCC2)C1=O.Cl [Example 7, 2-[2-Methyl-4-((2R,3′R)-2-methyl-[1,3′]bipyrrolidinyl-1′-yl)-phenyl]-2,8-diaza-spiro[4.5]decan-1-one Hydrochloride]
- Ki [1]: 15 nM
- Inverse Agonism: % inhibition of Basal GTPγS binding in Rhesus H3 [2]: −22%

Structure (SMILES): Cc1cc(N2CC[C@H](N3CCC[C@H]3C)C2)ccc1N1CCC2(CCNCC2)C1=O.Cl [Example 8, 2-[2-Methyl-4-((2R,3′S)-2-methyl-[1,3′]bipyrrolidinyl-1′-yl)-phenyl]-2,8-diaza-spiro[4.5]decan-1-one Hydrochloride]
- Ki [1]: 0.8 nM
- Inverse Agonism: % inhibition of Basal GTPγS binding in Rhesus H3 [2]: −26%

Structure (SMILES): Cc1cc(N2CC[C@@H](N3CCC[C@@H]3C)C2)ccc1N1CCC2(CCNCC2)C1=O.Cl [Example 9, 2-[2-Methyl-4-((2S,3′R)-2-methyl-[1,3′]bipyrrolidinyl-1′-yl)-phenyl]-2,8-diaza-spiro[4.5]decan-1-one Hydrochloride]
- Ki [1]: 0.6 nM
- Inverse Agonism: % inhibition of Basal GTPγS binding in Rhesus H3 [2]: −35%

Structure (SMILES): Cc1cc(N2CC[C@H](N3CCC[C@H]3C)C2)ccc1N1CCC2(CCN(CC3CCCC3)CC2)C1=O [Example 10, 8-Cyclopentyl methyl-2-[2-methyl-4-((2R,3′S)-2-methyl-[1,3′]bipyrrolidinyl-1′-l)-phenyl]-2,8-diaza-spiro[4.5]decan-1-one]
- Ki [1]: 12 nM
- Inverse Agonism: % inhibition of Basal GTPγS binding in Rhesus H3 [2]: −26%

Structure (SMILES): Cc1cc(N2CC[C@@H](N3CCC[C@H]3C)C2)ccc1N1CCC2(CCN(CC3CCCC3)CC2)C1=O [Example 11, 8-Cyclopentylmethyl-2-[2-methyl-4-((2R,3′R)-2-methyl-[1,3′]bipyrrolidinyl-1′-l)-phenyl]-2,8-diaza-spiro[4.5]decan-1-one]
- Ki [1]: 22 nM
- Inverse Agonism: % inhibition of Basal GTPγS binding in Rhesus H3 [2]: −29%

Structure (SMILES): Cc1cc(N2CC[C@@H](N3CCC[C@@H]3C)C2)ccc1N1CCC2(CCN(CC3CCCC3)CC2)C1=O [Example 12, 8-Cyclopentylmethyl-2-[2-methyl-4-((2S,3′R)-2-methyl-[1,3′]bipyrrolidinyl-1′-l)-phenyl]-2,8-diaza-spiro[4.5]decan-1-one]
- Ki [1]: 0.8 nM
- Inverse Agonism: % inhibition of Basal GTPγS binding in Rhesus H3 [2]: −20%

Structure (SMILES): Cc1cc(N2CC[C@H](N3CCC[C@@H]3C)C2)ccc1N1CCC2(CCN(CC3CCCC3)CC2)C1=O [Example 13, 8-Cyclopentylmethyl-2-[2-methyl-4-((2S,3′S)-2-methyl-[1,3′]bipyrrolidinyl-1′-l)-phenyl]-2,8-diaza-spiro[4.5]decan-1-one]
- Ki [1]: 0.8 nM
- Inverse Agonism: % inhibition of Basal GTPγS binding in Rhesus H3 [2]: −37%

Structure (SMILES): Cc1cc(N2CCC(N3CCCC3C)C2)ccc1N1CCC2(CCN(CC3CCCC3)CC2)C1=O (stereo not shown) [Example 14, 8-Cyclopentylmethyl-2-[2-methyl-4-(2-methyl-[1,3′]bipyrrolidinyl-1′-l)-phenyl]-2,8-diaza-spiro[4.5]decan-1-one]
- Ki [1]: 5.6 nM
- Inverse Agonism: % inhibition of Basal GTPγS binding in Rhesus H3 [2]: −31%

Structure (SMILES): Cc1cc(N2CC[C@H](N3CCC[C@H]3C)C2)ccc1N1CCC2(CCN(C(=O)c3ccc(OC(F)(F)F)cc3)CC2)C1=O [Example 15, 2-[2-Methyl-4-((2R,3′S)-2-methyl-[1,3′]bipyrrolidinyl-1′-yl)-phenyl]-8-(4-trifluoromethoxy-benzoyl)-2,8-diaza-spiro[4.5]decan-1-one]
- Ki [1]: 118 nM
- Inverse Agonism: % inhibition of Basal GTPγS binding in Rhesus H3 [2]: −14%

Structure (SMILES): Cc1cc(N2CC[C@@H](N3CCC[C@H]3C)C2)ccc1N1CCC2(CCN(C(=O)c3ccc(OC(F)(F)F)cc3)CC2)C1=O [Example 16, 2-[2-Methyl-4-((2R,3′R)-2-methyl-[1,3′]bipyrrolidinyl-1′-yl)-phenyl]-8-(4-trifluoromethoxy-benzoyl)-2,8-diaza-spiro[4.5]decan-1-one]
- Ki [1]: 100 nM
- Inverse Agonism: % inhibition of Basal GTPγS binding in Rhesus H3 [2]: −13%

Structure (SMILES): Cc1cc(N2CC[C@@H](N3CCC[C@@H]3C)C2)ccc1N1CCC2(CCN(C(=O)c3ccc(OC(F)(F)F)cc3)CC2)C1=O [Example 17, 2-[2-Methyl-4-((2S,3′R)-2-methyl-[1,3′]bipyrrolidinyl-1′-yl)-phenyl]-8-(4-trifluoromethoxy-benzoyl)-2,8-diaza-spiro[4.5]decan-1-one]
- Ki [1]: 1.4 nM
- Inverse Agonism: % inhibition of Basal GTPγS binding in Rhesus H3 [2]: −9%

Structure (SMILES): Cc1cc(N2CCC(N3CCCC3C)C2)ccc1N1CCC2(CCN(C(=O)c3ccc(OC(F)(F)F)cc3)CC2)C1=O (stereo not shown) [Example 18, 2-[2-Methyl-4-(2-methyl-[1,3′]bipyrrolidinyl-1′-yl)-phenyl]-8-(4-trifluoromethoxy-benzoyl)-2,8-diaza-spiro[4.5]decan-1-one]
- Ki [1]: 6.2 nM
- Inverse Agonism: % inhibition of Basal GTPγS binding in Rhesus H3 [2]: −10%

Structure (SMILES): Cc1cc(N2CC[C@H](N3CCC[C@@H]3C)C2)ccc1N1CCC2(CCN(C(=O)c3ccc(OC(F)(F)F)cc3)CC2)C1=O [Example 19, 2-[2-Methyl-4-((2S,3′S)-2-methyl-[1,3′]bipyrrolidinyl-1′-yl)-phenyl]-8-(4-trifluoromethoxy-benzoyl)-2,8-diaza-spiro[4.5]decan-1-one]
- Ki [1]: 1.4 nM
- Inverse Agonism: % inhibition of Basal GTPγS binding in Rhesus H3 [2]: −19%

Structure (SMILES): Cc1cc(N2CC[C@H](N3CCC[C@@H]3C)C2)ccc1N1CCCC2(CCN(C(=O)OC(C)(C)C)CC2)C1=O [Example 20, 2-[2-Methyl-4-((2S,3′S)-2-methyl-[1,3′]bipyrrolidinyl-1′-yl)-phenyl]-1-oxo-2,9-diaza-spiro[5.5]undecane-9-carboxylic acid tert-butyl ester]
- Ki [1]: 6.8 nM
- Inverse Agonism: % inhibition of Basal GTPγS binding in Rhesus H3 [2]: −18%

Structure (SMILES): C[C@H]1CCCN1[C@H]1CCN(c2ccc(N3CCCC4(CCN(C(=O)OC(C)(C)C)CC4)C3=O)cc2)C1 [Example 21, 2-[4-((2S,3′S)-2-Methyl-[1,3′]bipyrrolidinyl-1′-yl)-phenyl]-1-oxo-2,9-diaza-spiro[5.5]undecane-9-carboxylic acid tert-butyl ester]
- Ki [1]: 7.3 nM
- Inverse Agonism: % inhibition of Basal GTPγS binding in Rhesus H3 [2]: −28%

- Inverse Agonism: % inhibition of Basal GTPγS binding in Rhesus H3 [2]: −21%
Structure (SMILES): C[C@H]1CCCN1C1CCN(c2ccc(N3CCC4(CCN(C(=O)OC(C)(C)C)CC4)C3=O)c(F)c2)CC1 [Example 40, 2-{4-[4-(2S-2-Methyl-pyrrolidin-1-yl)-piperidin-1-yl]-2-fluoro-phenyl}-1-oxo-2,8-diaza-spiro[4.5]decane-8-carboxylic acid tert-butyl ester]
